From ChEMBL document CHEMBL1201862, “PubChem BioAssay data set” (2004)
Calls of active or inactive are those of the source.

Columns and labels:
[1] = target: T1, Heat shock factor protein 1 (Mus musculus, UniProt P38532); assay: decrease of HSF1-responsive luciferase luminescence – cell-based, NIH3T3, dose retest, confirmation (AID 2382); type: functional;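 further: NIH3T3 fibroblasts with HSF1-driven luciferase reporter stressed by proteasome inhibitor MG132; luminescence from HSF1-driven luciferase expression after 8 hours of MG132 stress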
T1 sequence (P38532 whole entry): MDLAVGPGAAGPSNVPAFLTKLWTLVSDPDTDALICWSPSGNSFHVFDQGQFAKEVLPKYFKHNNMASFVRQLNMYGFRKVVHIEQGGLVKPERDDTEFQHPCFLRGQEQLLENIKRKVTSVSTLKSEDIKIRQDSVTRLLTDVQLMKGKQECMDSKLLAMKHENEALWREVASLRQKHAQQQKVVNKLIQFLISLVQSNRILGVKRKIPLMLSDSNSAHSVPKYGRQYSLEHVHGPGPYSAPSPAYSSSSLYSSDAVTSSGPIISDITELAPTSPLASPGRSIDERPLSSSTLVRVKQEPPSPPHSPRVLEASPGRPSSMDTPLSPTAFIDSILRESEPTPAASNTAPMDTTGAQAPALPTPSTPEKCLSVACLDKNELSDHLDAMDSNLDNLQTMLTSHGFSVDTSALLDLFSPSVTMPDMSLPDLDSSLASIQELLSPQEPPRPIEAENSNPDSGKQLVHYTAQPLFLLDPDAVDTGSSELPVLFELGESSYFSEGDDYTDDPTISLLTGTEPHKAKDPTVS

[2] = target: T2, Corticotropin-releasing factor receptor 2/Corticotropin-releasing factor-binding protein (Homo sapiens, UniProt P24387+Q13324); assay: Dose Response confirmation of uHTS hits for small molecule antagonists of the CRF-binding protein and CRF-R2 receptor complex.; type: functional; details: read-out: IC50_Mean
T2 sequence (Q13324 whole entry): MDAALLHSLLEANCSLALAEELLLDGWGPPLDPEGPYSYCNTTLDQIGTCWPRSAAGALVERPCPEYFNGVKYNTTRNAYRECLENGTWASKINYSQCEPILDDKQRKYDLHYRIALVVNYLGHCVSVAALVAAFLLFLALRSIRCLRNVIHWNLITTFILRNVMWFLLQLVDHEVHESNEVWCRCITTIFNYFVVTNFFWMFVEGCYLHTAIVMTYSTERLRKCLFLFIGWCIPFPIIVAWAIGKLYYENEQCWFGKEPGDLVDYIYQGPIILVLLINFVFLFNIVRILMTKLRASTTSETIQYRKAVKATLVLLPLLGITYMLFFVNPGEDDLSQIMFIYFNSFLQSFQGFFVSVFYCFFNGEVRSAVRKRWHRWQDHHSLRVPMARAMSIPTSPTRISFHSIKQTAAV
T2 sequence (P24387 whole entry): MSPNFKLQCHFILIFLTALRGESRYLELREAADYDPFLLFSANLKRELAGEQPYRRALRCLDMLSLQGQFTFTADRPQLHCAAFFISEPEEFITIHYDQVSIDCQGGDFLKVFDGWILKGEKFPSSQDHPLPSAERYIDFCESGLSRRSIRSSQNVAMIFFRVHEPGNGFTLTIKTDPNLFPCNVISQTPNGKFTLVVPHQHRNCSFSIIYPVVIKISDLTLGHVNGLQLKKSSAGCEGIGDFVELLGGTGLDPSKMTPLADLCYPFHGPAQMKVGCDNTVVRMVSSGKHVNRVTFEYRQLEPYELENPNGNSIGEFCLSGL

[3] = target: T2, Corticotropin-releasing factor receptor 2/Corticotropin-releasing factor-binding protein; assay: activators of CRF receptor 2 with binding protein – uHTS hits, confirmation (AID 602473); type: functional; details: read-out: EC50_Mean
[4] = Luminescence Cell-Based Dose Retest to Confirm Inhibitors of Cancer Stem Cells. [Related pubchem assays (depositor defined):AID2717, AID2721]; type: functional; details: Homo sapiens
[5] = test system: Streptococcus sp. 'group A'; assay: Streptococcus pyogenes SK(-)GAS viability under kanamycin – luminescence, BacTiterGlo, confirmation, counter-screen for streptokinase expression inhibitor project, dose response (AID 1900); type: functional, organism-based
Streptokinase A = target: T3, Streptokinase A (Streptococcus pyogenes serotype M1, UniProt P10520); assay: viability-normalized secreted streptokinase activity reduction – plasminogen activation absorbance, OD405, dose response (AID 1914); type: functional, Streptococcus pyogenes M1 GAS;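 further: secreted streptokinase activity via plasminogen activation per viability signal from cell pellet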
T3 sequence (P10520 whole entry): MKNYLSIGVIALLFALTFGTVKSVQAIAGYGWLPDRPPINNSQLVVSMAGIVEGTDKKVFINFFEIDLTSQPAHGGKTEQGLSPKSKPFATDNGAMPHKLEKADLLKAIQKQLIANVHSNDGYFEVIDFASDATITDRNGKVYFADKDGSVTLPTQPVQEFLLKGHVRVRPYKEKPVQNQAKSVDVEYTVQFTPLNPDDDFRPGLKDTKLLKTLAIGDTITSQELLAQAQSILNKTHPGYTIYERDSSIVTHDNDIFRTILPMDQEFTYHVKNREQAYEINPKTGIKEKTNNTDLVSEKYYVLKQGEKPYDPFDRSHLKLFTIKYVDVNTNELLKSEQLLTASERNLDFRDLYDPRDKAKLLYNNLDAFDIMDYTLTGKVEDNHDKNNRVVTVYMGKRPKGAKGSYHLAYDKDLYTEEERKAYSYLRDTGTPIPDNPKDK

Streptococcus = assay: GAS UMAA2166 growth inhibition – luminescence, BacTiterGlo, counter-screen for streptokinase expression inhibitor project, dose response (AID 1915); type: functional, organism-based;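 further: potency for reduction of bacterial viability or growth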
[6] = target: FAD-linked sulfhydryl oxidase ALR (Homo sapiens, UniProt P55789); assay: ALR-catalysed DTT oxidation blockers – biochemical, H2O2 detection, luminescence, cherry-pick, dose response (AID 493248)
[7] = target: T4, Rac GTPase-activating protein 1 (Homo sapiens, UniProt Q9H0H5); assay: blockers of MgcRacGAP-driven Rac1 GTP hydrolysis – biochemical, ADP Hunter fluorescence, primary and confirmatory, confirmation (AID 624330); type: functional
T4 sequence (Q9H0H5 whole entry): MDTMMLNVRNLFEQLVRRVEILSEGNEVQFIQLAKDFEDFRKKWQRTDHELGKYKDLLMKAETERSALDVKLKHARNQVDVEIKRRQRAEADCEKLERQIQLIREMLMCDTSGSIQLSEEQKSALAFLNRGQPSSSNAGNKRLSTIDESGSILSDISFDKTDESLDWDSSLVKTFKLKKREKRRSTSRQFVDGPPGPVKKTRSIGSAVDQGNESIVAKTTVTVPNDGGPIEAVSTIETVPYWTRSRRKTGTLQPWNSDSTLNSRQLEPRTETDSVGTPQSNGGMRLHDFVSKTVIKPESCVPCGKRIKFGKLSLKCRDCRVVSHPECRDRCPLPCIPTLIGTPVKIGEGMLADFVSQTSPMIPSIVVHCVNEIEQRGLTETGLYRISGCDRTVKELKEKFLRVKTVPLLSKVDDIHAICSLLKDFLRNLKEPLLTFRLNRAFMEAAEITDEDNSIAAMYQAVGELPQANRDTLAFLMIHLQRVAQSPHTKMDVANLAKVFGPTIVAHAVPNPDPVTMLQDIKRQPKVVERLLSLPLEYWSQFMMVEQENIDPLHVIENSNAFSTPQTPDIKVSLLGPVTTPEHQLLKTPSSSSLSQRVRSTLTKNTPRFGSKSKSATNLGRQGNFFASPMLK

[8] = Trypanosoma cruzi growth suppression in host cells – NIH3T3 host cells, beta-gal luminescence, confirmation (AID 2044); type: functional, cell-based;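 further: intracellular parasites grown in NIH/3T3 mouse fibroblasts as host cells; luminescent beta-galactosidase reporter signal from transgenic T. cruzi replicating inside host cells; inhibitors lower the luminescence signal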
[9] = NIH3T3 cell viability loss – ATP luminescence, mouse fibroblasts, counter-screen, dose response (AID 2010); type: functional, cell-based;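 further: cells exposed to compound for about 90 hours before reading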
INS1 = assay: INS-1E survival protection against cytokine death – cell-based, luminescence, retest, dose response (AID 449756); type: functional; details: Rattus norvegicus;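 further: cell death triggered by IL-1 beta plus TNF-alpha plus IFN-gamma mixture; protective hits raise ATP signal compared with cytokine alone wells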
[10] = reduction of Shn3 3'UTR-driven luciferase in osteoblasts – cell-based, Clone20 osteoblasts, firefly luciferase, cherry-picked, dose response (AID 624132); type: functional;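 further: firefly luciferase luminescence from reporter carrying the Shn3 3'UTR in osteoblasts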
[11] = P. falciparum Dd2 growth inhibitors, dose response, SYBR Green, cherry-picked samples (AID 1159567); type: functional, cell-based

Chain of FAD-linked sulfhydryl oxidase ALR (P55789 whole entry): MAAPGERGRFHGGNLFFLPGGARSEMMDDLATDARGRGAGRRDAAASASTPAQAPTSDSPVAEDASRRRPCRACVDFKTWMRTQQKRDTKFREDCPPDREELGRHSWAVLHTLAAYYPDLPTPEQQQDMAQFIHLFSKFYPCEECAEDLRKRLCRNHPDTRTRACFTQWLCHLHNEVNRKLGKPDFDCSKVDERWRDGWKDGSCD

Structure (SMILES): CC(C)(C)c1ccc(/C=C2\SC(=O)N(CCNC(=O)c3cccc(S(=O)(=O)N4CCOCC4)c3)C2=O)cc1
- EC50 [1]: 2.43 µM (active)

Structure (SMILES): CCOC(=O)C1CCCN(C2CC(=O)N(c3ccccc3)C2=O)C1 (centres undefined)
- IC50 [2]: > 47.1 µM (inactive)
- EC50 [3]: > 53 µM (inactive)

Structure (SMILES): FC(F)(F)c1cccc(Nc2ncnc3ccccc23)c1
- AC50 [4]: 1.43 µM (active)

Structure (SMILES): CN1C(=O)NC(c2ccccc2)(C(F)(F)F)S/C1=C(/C#N)c1nnc(N2CCOCC2)n1-c1ccccc1 (centres undefined)
- EC50 [5]: > 150 µM (not active)
- EC50 (Streptokinase A): > 150 µM (not active)
- EC50 (Streptococcus): > 150 µM (not active)
- IC50 [2]: > 47.1 µM (inactive)
- EC50 [3]: > 53 µM (inactive)

Structure (SMILES): CC(C)C(=O)Nc1ccc(C(=O)N2CCN(C(=O)c3ccco3)CC2)cc1
- EC50 [1]: > 195 µM (not active)

Structure (SMILES): CSCc1ccc(C(=O)NC(C)c2cnn(-c3ccccn3)c2C)o1 (centres undefined)
- AC50 [6]: 9.51 µM (active)

Structure (SMILES): CN(C(=O)c1ccccc1C(=O)OCC(=O)Nc1ccc(S(N)(=O)=O)cc1)c1ccccc1
- EC50 [1]: > 195 µM (not active)

Structure (SMILES): CCc1sc(C(=O)NCCc2ccc(S(N)(=O)=O)cc2)cc1Br
- IC50 [2]: > 47.1 µM (inactive)
- EC50 [3]: > 53 µM (inactive)

Structure (SMILES): Cn1c(-c2ccccc2)cnc1NCc1ccc(-c2ccccc2)cc1
- AC50 [4]: 1.34 µM (active)
- IC50 [7]: 78.1 µM (active)

Structure (SMILES): COc1ccc(C2NC(=O)C(C#N)=C(S)N2c2ccccc2)cc1OC (centres undefined)
- AC50 [6]: < 0.014 µM (active)

Structure (SMILES): CC1CCC(NC(=O)Nc2cccs2)CC1 (centres undefined)
- AC50 [6]: 1.18 µM (active)

Structure (SMILES): Fc1ccc(N2CCN(Cc3ccccn3)CC2)cc1
- AC50 [6]: 8.77 µM (active)

Structure (SMILES): C/[N+]([O-])=C\C1C(=O)CC(C)(C)CC1=O
- EC50 [1]: > 195 µM (not active)
- IC50 [2]: > 47.1 µM (inactive)
- EC50 [3]: > 53 µM (inactive)

Structure (SMILES): COC(=O)Nc1ccc(S(=O)(=O)N2CCC(C(=O)N(C)C3CCCCC3)CC2)cc1
- AC50 [6]: 1.92 µM (active)

Structure (SMILES): COc1ccc(-c2nc3ccc(C)cn3c2NCc2ccccc2)cc1SC1CCCCC1
- EC50 [8]: 1.2 µM (active)
- EC50 [9]: > 60 µM (not active)
- AC50 (INS1): 2.61 µM (active)

Structure (SMILES): CN(Cc1ccccc1)S(=O)(=O)c1nnc(NC(=O)c2ccc(F)cc2)s1
- IC50 [2]: < 0.368 µM (active)
- EC50 [3]: > 53 µM (inactive)

Structure (SMILES): O=C1Nc2ccccc2N(O)N1c1cc(-c2cccc(Cl)c2)no1
- AC50 [6]: 1.92 µM (active)
- IC50 [2]: > 47.1 µM (inactive)
- EC50 [3]: 6.32 µM (active)

Structure (SMILES): COc1ccc(NC2CCCN(C(=O)CCc3ccccc3F)C2)cc1 (centres undefined)
- AC50 [6]: 13.4 µM (active)
- IC50 [7]: 65.4 µM (active)

Structure (SMILES): COc1ccc(C(=O)Nc2ccc3c(c2)nc(CN2CCCC2)n3C)cc1
- EC50 [1]: > 195 µM (not active)

Structure (SMILES): COC(=O)c1ccc(NC(=O)NC2CCCCC2)cc1
- EC50 [1]: > 195 µM (not active)

Structure (SMILES): O=C(Cc1ccc(-n2cccc2)cc1)N1CCN(c2ccccc2F)CC1
- IC50 [2]: > 47.1 µM (inactive)
- EC50 [3]: > 53 µM (inactive)

Structure (SMILES): Cc1ccc([N+](=O)[O-])cc1N(CC(=O)Nc1ccc(S(=O)(=O)Nc2cccc(C(F)(F)F)c2)cc1)S(C)(=O)=O
- EC50 [8]: 1.86 µM (active)
- EC50 [9]: > 60 µM (not active)
- AC50 [4]: 3.7 µM (active)
- AC50 (INS1): 2.56 µM (active)

Structure (SMILES): Cc1ccnc(NC(=O)CS(=O)(=O)c2ccccc2)c1
- EC50 [1]: > 195 µM (not active)

Structure (SMILES): NS(=O)(=O)c1ccc(CNC(=O)c2cnccn2)cc1
- EC50 [1]: > 195 µM (not active)

Structure (SMILES): O=C(NNC(=O)c1ccccc1OCc1ccc(F)cc1)c1ccccc1O
- EC50 [5]: 3.68 µM (active)
- EC50 (Streptococcus): 3.62 µM (active)
- AC50 (INS1): 2.67 µM (active)

Structure (SMILES): COc1ccccc1OCCCCOc1ccccc1C(C)=O
- AC50 (INS1): 12 µM (active)

Structure (SMILES): Cc1ccsc1C(=O)NNC(=O)CCN1CCN(c2ccccc2)CC1
- AC50 [6]: 4.88 µM (active)

Structure (SMILES): Cc1ccc(NC2CCCN(C(=O)c3cc4ncccn4n3)C2)cc1C (centres undefined)
- AC50 [6]: 4.14 µM (active)

Structure (SMILES): COc1ccc(NC(=O)N(C)C[C@H]2Oc3c(NS(=O)(=O)c4ccc(F)cc4)cccc3C(=O)N([C@H](C)CO)C[C@@H]2C)cc1
- AC50 (INS1): > 260 µM (inactive)

Structure (SMILES): C=C1CCN([C@@H](CC(C)C)C(=O)Nc2nc3ccc(Cl)cc3s2)S(=O)(=O)c2ccccc21
- AC50 [4]: 5.19 µM (active)

Structure (SMILES): COc1ccc(S(=O)(=O)N(CC(C)C)C2CCS(=O)(=O)C2)cc1OC (centres undefined)
- IC50 [2]: > 47.1 µM (inactive)
- EC50 [3]: > 53 µM (inactive)

Structure (SMILES): O=C(O)C1(Nc2ccccc2Cl)CCCC1
- AC50 [10]: 29.5 µM (active)

Structure (SMILES): COc1cc(/C=N/NC(=O)c2ccc(O)nn2)ccc1O
- AC50 [6]: 1.22 µM (active)
- IC50 [7]: 23.9 µM (active)

Structure (SMILES): C/C=C/c1ccc2c(c1)[C@H]1[C@H](CCN1C(=O)c1ccc3c(c1)OCO3)[C@H](CO)N2
- AC50 [11]: 6.34 µM (active)

Structure (SMILES): C[C@H](CO)N1C[C@H](C)[C@@H](CN(C)C(=O)c2ccccc2F)Oc2ncc(C#Cc3ccccc3)cc2C1=O
- AC50 [11]: 4.79 µM (active)

Structure (SMILES): C[C@H]1CN([C@@H](C)CO)C(=O)c2c(c3ccccc3n2C)-c2ccccc2CO[C@@H]1CN(C)C(=O)Nc1cccc(F)c1
- AC50 [11]: 5.29 µM (active)
